Results published in BindingDB's records for doi:10.1021/jm00088a003 (Merck Research Laboratories, 1992).
pIC50: −log10 of the molar value.

Each molecule was assayed against T1, Dimer of Gag-Pol polyprotein [489-587] (Human immunodeficiency virus 1, UniProt P12497) (assay: Protease Inhibition Assay). Details: pH 5.5; 30 °C.
T1 construct: 489-587
Procedure: Sensitivity of HIV-1 protease activity to protease inhibitors was determined by a peptide substrate cleavage assay. Protease products were analyzed on a reverse-phase high-pressure liquid chromatograph.

Row | Structure (SMILES) | pIC50
1 | CC(C)(C)OC(=O)N[C@@H](Cc1ccccc1)[C@@H](O)C[C@@H](Cc1ccc(OCc2ccccc2)cc1)C(=O)N[C@H]1c2ccccc2C[C@H]1O [N-(2(R)-Hydroxy-1(S)-indany1)-5(S)-[(tert-butyloxycarbonyl)amino]-4(S)-hydroxy-6-phenyl-2(R)-[[4-(benzyloxy)phenyl]methyl]hexanamide] | 9.74
2 | CC(C)(C)OC(=O)N[C@@H](Cc1ccc(OCCN2CCOCC2)cc1)[C@@H](O)C[C@@H](Cc1ccc(OCCN2CCOCC2)cc1)C(=O)N[C@H]1c2ccccc2C[C@H]1O [tert-butyl N-[(2S,3S,5R)-3-hydroxy-5-{[(1S,2R)-2-hydroxy-2,3-dihydro-1H-inden-1-yl]carbamoyl}-1-{4-[2-(morpholin-4-yl)ethoxy]phenyl}-5-({4-[2-(morpholin-4-yl)ethoxy]phenyl}methyl)pentan-2-yl]carbamate] | 8.72
3 | CC(C)(C)OC(=O)N[C@@H](Cc1ccccc1)[C@@H](O)C[C@@H](Cc1ccc(OCC[N+]2(O)CCOCC2)cc1)C(=O)N[C@H]1c2ccccc2C[C@H]1O [4-(2-{4-[(2R)-2-[(2S,3S)-3-{[(tert-butoxy)carbonyl]amino}-2-hydroxy-4-phenylbutyl]-2-{[(1S,2R)-2-hydroxy-2,3-dihydro-1H-inden-1-yl]carbamoyl}ethyl]phenoxy}ethyl)-4-hydroxymorpholin-4-ium] | 9.70
4 | CC(C)(C)OC(=O)N[C@@H](Cc1ccccc1)[C@@H](O)C[C@@H](Cc1ccc(OCCO)cc1)C(=O)N[C@H]1c2ccccc2C[C@H]1O [tert-butyl N-[(2S,3S,5R)-3-hydroxy-5-{[(1S,2R)-2-hydroxy-2,3-dihydro-1H-inden-1-yl]carbamoyl}-5-{[4-(2-hydroxyethoxy)phenyl]methyl}-1-phenylpentan-2-yl]carbamate] | 10.05
5 | CC(C)(C)OC(=O)N[C@@H](Cc1ccccc1)[C@@H](O)C[C@@H](Cc1ccc(OCCN2CCCC2)cc1)C(=O)N[C@H]1c2ccccc2C[C@H]1O [tert-butyl N-[(2S,3S,5R)-3-hydroxy-5-{[(1S,2R)-2-hydroxy-2,3-dihydro-1H-inden-1-yl]carbamoyl}-1-phenyl-5-({4-[2-(pyrrolidin-1-yl)ethoxy]phenyl}methyl)pentan-2-yl]carbamate] | 8.74
6 | CC(C)(C)OC(=O)N[C@@H](Cc1ccc(O)cc1)[C@@H](O)C[C@@H](Cc1ccccc1)C(=O)N[C@H]1c2ccccc2C[C@H]1O [N-(2(R)-Hydroxy-1(S)-indanyl)-5(S)-[(tert-butyloxycarbonyl)amino]-4(S)-hydroxy-6-(4-hydroxyphenyl)-2-(R)-(phenylmethyl)hexanamide] | 9.46
7 | CN1CCN(CCOc2ccc(C[C@H](C[C@H](O)[C@H](Cc3ccccc3)NC(=O)OC(C)(C)C)C(=O)N[C@H]3c4ccccc4C[C@H]3O)cc2)CC1 [tert-butyl N-[(2S,3S,5R)-3-hydroxy-5-{[(1S,2R)-2-hydroxy-2,3-dihydro-1H-inden-1-yl]carbamoyl}-5-({4-[2-(4-methylpiperazin-1-yl)ethoxy]phenyl}methyl)-1-phenylpentan-2-yl]carbamate] | 9.70
8 | CC(C)(C)OC(=O)N[C@@H](Cc1ccc(O)cc1)[C@@H](O)C[C@@H](Cc1ccc(O)cc1)C(=O)N[C@H]1c2ccccc2C[C@H]1O [N-(2(R)-Hydroxy-1(S)-indanyl)-5(S)-[(tert-butyloxycarbonyl)amino]-4(S)-hydroxy-6-(4-hydroxyphenyl)-2-(R)-[(4-hydroxyphenyl)methyl]hexanamide] | 9.82
9 | CC(C)(C)OC(=O)N[C@@H](Cc1ccccc1)[C@@H](O)C[C@@H](Cc1ccc(OCCN2CCSCC2)cc1)C(=O)N[C@H]1c2ccccc2C[C@H]1O [N-(2(R)-Hydroxy-1(S)-indanyl)-5(S)-[(tert-butyloxycarbonyl)amino]-4(S)-hydroxy-6-phenyl-2(R)-[[4-[2-(thiamorpholin-4-yl)ethoxy]phenyl]methyl]hexanamide] | 9.33
10 | CC(C)(C)OC(=O)N[C@@H](Cc1ccccc1)[C@@H](O)C[C@@H](Cc1ccc(OCCN2CC[S+]([O-])CC2)cc1)C(=O)N[C@H]1c2ccccc2C[C@H]1O [tert-butyl N-[(2S,3S,5R)-3-hydroxy-5-{[(1S,2R)-2-hydroxy-2,3-dihydro-1H-inden-1-yl]carbamoyl}-5-({4-[2-(1-oxo-1,4-thiomorpholin-4-yl)ethoxy]phenyl}methyl)-1-phenylpentan-2-yl]carbamate] | 10.15
11 | CC(C)(C)OC(=O)N[C@@H](Cc1ccccc1)[C@@H](O)C[C@@H](Cc1ccc(OCCN2CCS(=O)(=O)CC2)cc1)C(=O)N[C@H]1c2ccccc2C[C@H]1O [N-(2(R)-Hydroxy-1(S)-indanyl)-5(S)-[(tert-butyloxycarbonyl)amino]-4(S)-hydroxy-6-phenyl-2(R)-[[4-[2-(1,1-dioxythiamorpholin-4-yl)ethoxy]phenyl]methyl]hexanamide] | 10.10
12 | COCCN(CCOC)CCOc1ccc(C[C@H](C[C@H](O)[C@H](Cc2ccccc2)NC(=O)OC(C)(C)C)C(=O)N[C@H]2c3ccccc3C[C@H]2O)cc1 [N-(2(R)-Hydroxy-1(S)-indanyl)-5(S)-[(tert-butyloxycarbonyl)amino]-4(S)-hydroxy-6-phenyl-2(R)-[[4-[2-[N,N-bis(2-methoxyethyl)amino]ethoxy]phenyl]methyl]hexanamide] | 9.05
13 | CN(C)CCOc1ccc(C[C@H](C[C@H](O)[C@H](Cc2ccccc2)NC(=O)OC(C)(C)C)C(=O)N[C@H]2c3ccccc3C[C@H]2O)cc1 [tert-butyl N-[(2S,3S,5R)-5-({4-[2-(dimethylamino)ethoxy]phenyl}methyl)-3-hydroxy-5-{[(1S,2R)-2-hydroxy-2,3-dihydro-1H-inden-1-yl]carbamoyl}-1-phenylpentan-2-yl]carbamate] | 8.68
14 | CC(C)(C)OC(=O)N[C@@H](Cc1ccccc1)[C@@H](O)C[C@@H](Cc1ccc(OCC(=O)N2CCOCC2)cc1)C(=O)N[C@H]1c2ccccc2C[C@H]1O [tert-butyl N-[(2S,3S,5R)-3-hydroxy-5-{[(1S,2R)-2-hydroxy-2,3-dihydro-1H-inden-1-yl]carbamoyl}-5-({4-[2-(morpholin-4-yl)-2-oxoethoxy]phenyl}methyl)-1-phenylpentan-2-yl]carbamate] | 9.70
15 | CC(C)(C)OC(=O)N[C@@H](Cc1ccc(OCCN2CCOCC2)cc1)[C@@H](O)C[C@@H](Cc1ccccc1)C(=O)N[C@H]1c2ccccc2C[C@H]1O [tert-butyl N-[(2S,3S,5R)-5-benzyl-3-hydroxy-5-{[(1S,2R)-2-hydroxy-2,3-dihydro-1H-inden-1-yl]carbamoyl}-1-{4-[2-(morpholin-4-yl)ethoxy]phenyl}pentan-2-yl]carbamate] | 9.26
16 | CC(C)(C)OC(=O)N[C@@H](Cc1ccccc1)[C@@H](O)C[C@@H](Cc1ccc(OCCN2CCCCC2)cc1)C(=O)N[C@H]1c2ccccc2C[C@H]1O [tert-butyl N-[(2S,3S,5R)-3-hydroxy-5-{[(1S,2R)-2-hydroxy-2,3-dihydro-1H-inden-1-yl]carbamoyl}-1-phenyl-5-({4-[2-(piperidin-1-yl)ethoxy]phenyl}methyl)pentan-2-yl]carbamate] | 8.80
17 | CC(C)(C)OC(=O)N[C@@H](Cc1ccccc1)[C@@H](O)C[C@@H](Cc1ccc(OCC(=O)O)cc1)C(=O)N[C@H]1c2ccccc2C[C@H]1O [2-{4-[(2R)-2-[(2S,3S)-3-{[(tert-butoxy)carbonyl]amino}-2-hydroxy-4-phenylbutyl]-2-{[(1S,2R)-2-hydroxy-2,3-dihydro-1H-inden-1-yl]carbamoyl}ethyl]phenoxy}acetic acid] | 10.40
